According to ChEMBL document CHEMBL1201862, “PubChem BioAssay data set” (2004):
The source made the active and inactive calls.

What was measured:
[1] = target: FAD-linked sulfhydryl oxidase ALR (Homo sapiens, UniProt P55789); assay: ALR-catalysed DTT oxidation blockers – biochemical, H2O2 detection, luminescence, cherry-pick, dose response (AID 493248)
[2] = target: T1, Zinc finger protein mex-5 (Caenorhabditis elegans, UniProt Q9XUB2); assay: potency of MEX-5 RNA-binding blockers – biochemical, C. elegans, fluorescence polarization, dose response (AID 1960)
T1 sequence (Q9XUB2 whole entry): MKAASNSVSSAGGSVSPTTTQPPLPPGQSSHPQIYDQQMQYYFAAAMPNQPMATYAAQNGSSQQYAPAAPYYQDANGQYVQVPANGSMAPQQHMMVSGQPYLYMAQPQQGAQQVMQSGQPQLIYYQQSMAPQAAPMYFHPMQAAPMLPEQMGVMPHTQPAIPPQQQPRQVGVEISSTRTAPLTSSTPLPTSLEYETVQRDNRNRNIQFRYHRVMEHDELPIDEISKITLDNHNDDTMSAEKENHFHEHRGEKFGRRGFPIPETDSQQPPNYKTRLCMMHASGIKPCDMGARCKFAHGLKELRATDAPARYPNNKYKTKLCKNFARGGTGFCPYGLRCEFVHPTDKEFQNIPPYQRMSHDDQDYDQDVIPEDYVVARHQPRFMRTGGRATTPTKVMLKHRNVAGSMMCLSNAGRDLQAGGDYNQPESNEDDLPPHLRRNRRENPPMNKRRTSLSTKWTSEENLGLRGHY

[3] = target: T2, RNA-binding protein pos-1 (Caenorhabditis elegans, UniProt G5EF15); assay: disruptors of C. elegans POS-1 RNA interaction – biochemical, fluorescence polarization, dose response (AID 1964);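 also: purified POS-1 fused to maltose binding protein made in E. coli; potency of compounds blocking POS-1 binding to fluorescent RNA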
T2 sequence (G5EF15 whole entry): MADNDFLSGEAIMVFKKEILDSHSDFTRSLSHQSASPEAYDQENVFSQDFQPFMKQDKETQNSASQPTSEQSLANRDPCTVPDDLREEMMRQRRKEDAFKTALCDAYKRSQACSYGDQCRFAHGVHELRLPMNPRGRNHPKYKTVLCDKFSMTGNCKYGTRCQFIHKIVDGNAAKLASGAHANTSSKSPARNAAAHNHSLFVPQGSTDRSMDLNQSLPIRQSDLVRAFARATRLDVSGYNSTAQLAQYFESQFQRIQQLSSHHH

Protein RecA = target: T3, Protein RecA (Mycobacterium tuberculosis, UniProt P9WHJ3); assay: Fluorescence Cell-Free Homogeneous Dose Retest to Identify Inhibitors of RecA-Intein Splicing Activity. [Related pubchem assays (depositor defined):AID2097, AID2223, AID489010, AID492950]; format: functional
T3 sequence (P9WHJ3 whole entry): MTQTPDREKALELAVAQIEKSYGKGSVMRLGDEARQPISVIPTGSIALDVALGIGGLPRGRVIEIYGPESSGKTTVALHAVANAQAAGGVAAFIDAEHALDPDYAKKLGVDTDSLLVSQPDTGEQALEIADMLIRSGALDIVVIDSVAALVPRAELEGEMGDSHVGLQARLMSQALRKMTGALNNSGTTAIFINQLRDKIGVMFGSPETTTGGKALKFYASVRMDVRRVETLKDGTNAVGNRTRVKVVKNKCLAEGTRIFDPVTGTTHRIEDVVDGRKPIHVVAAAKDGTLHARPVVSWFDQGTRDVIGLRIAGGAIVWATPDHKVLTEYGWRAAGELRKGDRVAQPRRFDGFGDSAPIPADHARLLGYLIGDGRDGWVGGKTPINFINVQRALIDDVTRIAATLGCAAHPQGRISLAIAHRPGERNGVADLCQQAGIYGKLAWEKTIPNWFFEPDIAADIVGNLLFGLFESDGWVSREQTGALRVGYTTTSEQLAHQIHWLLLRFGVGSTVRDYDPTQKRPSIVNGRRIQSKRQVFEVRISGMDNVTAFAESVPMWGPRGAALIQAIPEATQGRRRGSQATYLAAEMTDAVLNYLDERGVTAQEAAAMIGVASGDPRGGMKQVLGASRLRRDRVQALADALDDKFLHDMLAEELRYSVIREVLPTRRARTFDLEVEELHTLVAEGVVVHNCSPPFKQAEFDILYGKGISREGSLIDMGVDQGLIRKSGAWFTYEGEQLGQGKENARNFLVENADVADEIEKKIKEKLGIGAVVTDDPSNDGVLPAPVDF

[4] = target: T4, Replicative DNA helicase DnaB (Mycobacterium tuberculosis, UniProt P9WMR3); assay: DnaB intein splicing inhibitors, dose response, biochemical, cell-free fluorescence (AID 449749); format: functional
T4 sequence (P9WMR3 whole entry): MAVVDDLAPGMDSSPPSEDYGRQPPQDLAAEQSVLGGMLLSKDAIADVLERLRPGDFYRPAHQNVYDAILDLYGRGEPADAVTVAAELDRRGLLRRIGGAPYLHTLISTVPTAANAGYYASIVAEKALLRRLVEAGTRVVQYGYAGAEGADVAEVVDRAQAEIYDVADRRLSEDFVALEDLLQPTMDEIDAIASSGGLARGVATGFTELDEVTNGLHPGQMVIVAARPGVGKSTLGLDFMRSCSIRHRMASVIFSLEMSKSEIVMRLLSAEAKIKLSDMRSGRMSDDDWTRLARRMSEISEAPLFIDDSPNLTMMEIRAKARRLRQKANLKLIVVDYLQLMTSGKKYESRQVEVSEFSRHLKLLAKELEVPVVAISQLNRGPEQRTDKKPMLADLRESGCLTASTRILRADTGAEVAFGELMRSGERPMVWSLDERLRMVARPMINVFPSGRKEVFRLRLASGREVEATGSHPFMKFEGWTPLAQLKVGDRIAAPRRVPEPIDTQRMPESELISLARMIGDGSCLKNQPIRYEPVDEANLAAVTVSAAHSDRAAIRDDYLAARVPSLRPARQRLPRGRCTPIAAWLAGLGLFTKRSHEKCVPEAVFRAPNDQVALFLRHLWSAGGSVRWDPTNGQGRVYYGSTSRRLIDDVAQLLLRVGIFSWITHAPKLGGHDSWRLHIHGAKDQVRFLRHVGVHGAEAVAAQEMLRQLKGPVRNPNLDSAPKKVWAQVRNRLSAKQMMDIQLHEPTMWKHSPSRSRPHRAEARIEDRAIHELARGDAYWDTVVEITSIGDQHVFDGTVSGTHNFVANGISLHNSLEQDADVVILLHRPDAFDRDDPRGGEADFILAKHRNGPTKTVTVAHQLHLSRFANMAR

[5] = target: T5, Rac GTPase-activating protein 1 (Homo sapiens, UniProt Q9H0H5); assay: blockers of MgcRacGAP-driven Rac1 GTP hydrolysis – biochemical, ADP Hunter fluorescence, primary and confirmatory, confirmation (AID 624330); format: functional
T5 sequence (Q9H0H5 whole entry): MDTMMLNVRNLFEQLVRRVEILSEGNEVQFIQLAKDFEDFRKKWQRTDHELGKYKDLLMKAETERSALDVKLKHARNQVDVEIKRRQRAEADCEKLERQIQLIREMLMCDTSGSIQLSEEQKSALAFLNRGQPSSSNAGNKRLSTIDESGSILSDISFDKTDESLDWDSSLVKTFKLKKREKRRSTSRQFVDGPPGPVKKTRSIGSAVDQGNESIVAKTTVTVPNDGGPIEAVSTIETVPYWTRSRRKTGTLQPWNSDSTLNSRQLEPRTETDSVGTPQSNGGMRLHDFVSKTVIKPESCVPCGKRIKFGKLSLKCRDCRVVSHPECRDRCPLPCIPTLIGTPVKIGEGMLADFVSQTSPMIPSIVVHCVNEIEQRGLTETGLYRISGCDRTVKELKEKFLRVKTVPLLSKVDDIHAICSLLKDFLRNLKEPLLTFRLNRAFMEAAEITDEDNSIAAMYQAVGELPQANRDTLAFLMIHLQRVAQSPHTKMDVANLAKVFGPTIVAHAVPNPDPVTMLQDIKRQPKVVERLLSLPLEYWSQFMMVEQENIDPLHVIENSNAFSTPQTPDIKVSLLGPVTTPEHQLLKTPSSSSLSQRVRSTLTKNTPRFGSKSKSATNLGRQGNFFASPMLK

[6] = system: Streptococcus sp. 'group A'; assay: Streptococcus pyogenes SK(-)GAS viability under kanamycin – luminescence, BacTiterGlo, confirmation, counter-screen for streptokinase expression inhibitor project, dose response (AID 1900); format: functional, organism-based
Streptococcus = assay: GAS UMAA2166 growth inhibition – luminescence, BacTiterGlo, counter-screen for streptokinase expression inhibitor project, dose response (AID 1915); format: functional, organism-based;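 also: potency for reduction of bacterial viability or growth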
Streptokinase A = target: T6, Streptokinase A (Streptococcus pyogenes serotype M1, UniProt P10520); assay: viability-normalized secreted streptokinase activity reduction – plasminogen activation absorbance, OD405, dose response (AID 1914); format: functional, Streptococcus pyogenes M1 GAS;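 also: secreted streptokinase activity via plasminogen activation per viability signal from cell pellet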
T6 sequence (P10520 whole entry): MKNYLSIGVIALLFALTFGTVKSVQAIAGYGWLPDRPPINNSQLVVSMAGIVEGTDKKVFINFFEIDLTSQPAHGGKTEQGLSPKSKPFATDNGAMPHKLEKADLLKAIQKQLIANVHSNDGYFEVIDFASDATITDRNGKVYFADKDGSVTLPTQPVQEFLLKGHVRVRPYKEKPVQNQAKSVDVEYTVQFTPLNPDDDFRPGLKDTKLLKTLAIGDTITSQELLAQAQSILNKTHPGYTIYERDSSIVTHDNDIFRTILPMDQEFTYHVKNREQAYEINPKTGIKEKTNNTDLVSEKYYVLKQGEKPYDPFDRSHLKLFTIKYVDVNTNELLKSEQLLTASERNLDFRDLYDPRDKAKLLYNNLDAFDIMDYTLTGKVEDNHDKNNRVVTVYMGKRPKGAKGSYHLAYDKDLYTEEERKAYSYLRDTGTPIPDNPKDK

[7] = blockers of HIV-1 ZM109 envelope-driven cell-cell fusion – HeLa effector, CEM target cells, luciferase, cherry-pick, dose response (AID 652058); format: functional, cell-based;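 also: luciferase signal from HIV-1 Env mediated cell-cell fusion of effector and target cells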
[8] = HIV-1 AD8 envelope cell-cell fusion blockers – cherry-pick, dose response (AID 652062); format: functional, cell-based;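 also: luciferase signal from cell-cell fusion driven by HIV-1 clade B AD8 Env; potency is for inhibitors of fusion seen as a drop in luminescence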
[9] = intracellular Trypanosoma cruzi inhibitors in host cells – cell-based, plate reader, cherry-pick samples, set 3, dose response (AID 651818); format: functional;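 also: compounds incubated with infected cells for about four days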

Chain of FAD-linked sulfhydryl oxidase ALR (P55789 whole entry): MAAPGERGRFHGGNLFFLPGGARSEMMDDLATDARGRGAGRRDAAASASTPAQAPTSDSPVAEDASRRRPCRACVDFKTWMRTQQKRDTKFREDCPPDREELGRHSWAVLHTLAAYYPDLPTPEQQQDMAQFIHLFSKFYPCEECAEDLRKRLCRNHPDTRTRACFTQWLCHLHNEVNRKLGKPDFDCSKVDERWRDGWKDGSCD

Nc1scc(-c2ccncc2)c1Cl
AC50 [1]: 1.73 µM (active)

Nc1ncc(Br)cc1S(=O)(=O)NCCC(=O)N1CCN(c2ccccc2)CC1
AC50 [1]: 1.56 µM (active)

Cc1ccc2nc(O)c(CN(CCO)Cc3nnnn3CCc3ccccc3)cc2c1
EC50 [2]: > 300 µM (not active) | EC50 [3]: > 300 µM (not active)

Cc1ccc(N2C(=O)C(Cl)=C(NCCO)C2=O)c(C)c1
EC50 (Protein RecA): 10.8 µM (active) | AC50 [4]: 155 µM (active)

O=C(N[C@H]1CP(=O)(Oc2ccccc2)O[C@H](COCc2ccccc2)[C@H]1O)C(Cl)(Cl)Cl (stereo not given in full)
EC50 [2]: > 300 µM (not active) | EC50 [3]: > 300 µM (not active)

CN(C)c1ccc(C(c2nnnn2C(C)(C)C)N2CCN(C(=O)c3ccco3)CC2)cc1 (stereo not given)
AC50 [1]: 3.83 µM (active)

COC(=O)CCC(=O)OC1(C)C(=O)C2=CN(CCc3ccccn3)C(c3ccc(OC)cc3)=CC2=C(Br)C1=O (stereo not given)
EC50 [2]: 8.83 µM (active) | EC50 [3]: 68.5 µM (active)

CC(C)(C)OC(=O)NCCCC1=CC2=CC(=O)C(C)(OC(=O)c3ccco3)C(=O)C2=CO1 (stereo not given)
EC50 [2]: 46.8 µM (active) | EC50 [3]: 46.9 µM (active)

Nc1ccc2[nH]c(C3CCCCC3)nc2c1
IC50 [5]: 70.2 µM (active) | AC50 [1]: 1.13 µM (active)

COc1ccc(N2CCN(C(=O)Cc3ccc(OC)c(OC)c3)CC2)cc1
AC50 [1]: 7.7 µM (active)

Cc1ccc(/C=C2/Sc3ccc(C(=O)N4CCC5(CC4)OCCO5)cc3NC2=O)cc1
EC50 [6]: 7.6 µM (active) | EC50 (Streptococcus): 9.49 µM (active) | EC50 [2]: 8.06 µM (inconclusive) | EC50 (Streptokinase A): > 150 µM (not active) | EC50 [3]: 4.37 µM (active)

O=C(CNCC1CCCCC1)Nc1ccc(N2CCCCC2)cc1
AC50 [1]: 13.4 µM (active)

COCc1cc(O)n2ncc(-c3ccsc3)c2n1
AC50 [1]: 3.5 µM (active)

CC1CC(C)CN(C(=O)c2ccc3c(c2)N(Cc2ccccc2)CCS3)C1 (stereo not given)
EC50 (Protein RecA): 23.6 µM (active) | AC50 [4]: 5.01 µM (active)

O=C(CCl)NCc1c(Cl)cccc1-n1cccc1
EC50 (Protein RecA): 15.3 µM (active) | AC50 [4]: > 380 µM (inactive)

COc1ccccc1C(=O)Nc1ccc2c(c1)nc1n2CCSC1
AC50 [1]: 0.076 µM (active)

Cc1ccc(N2C(=O)NC(=O)/C(=C\c3cc(C)n(-c4cc(C(=O)O)cc(C(=O)O)c4)c3C)C2=O)cc1
EC50 [2]: > 300 µM (not active) | EC50 [3]: > 300 µM (not active)

O=C(c1ccccc1)N1CCC(c2nc(-c3ccc(S(=O)(=O)NCC4CCCO4)cc3)no2)CC1 (stereo not given)
AC50 [7]: 24.4 µM (active) | AC50 [8]: 11.3 µM (active)

c1ccc(CN2C3=NCCN3c3ccccc32)cc1
AC50 [1]: 40.9 µM (active)

C[C@H]1CN([C@@H](C)CO)C(=O)Cc2cc(NS(=O)(=O)c3ccc(F)cc3)ccc2O[C@@H]1CN(C)Cc1ccc(-c2ccccc2)cc1
AC50 [9]: 3.21 µM (active)

C[C@H](CO)N1C[C@H](C)[C@H](CN(C)CC2CC2)Oc2c(NC(=O)Nc3ccc(C(F)(F)F)cc3)cccc2C1=O
AC50 [9]: 2.66 µM (active)

C[C@@H]1CN([C@@H](C)CO)C(=O)c2cccc(NC(=O)C3CCCCC3)c2O[C@H]1CN(C)CC1CC1
AC50 [9]: 8.92 µM (active)

COc1ccc(NC(=O)Nc2ccc3c(c2)CC(=O)N([C@@H](C)CO)C[C@H](C)[C@H](CN(C)Cc2ccc(-c4ccccc4)cc2)O3)cc1
AC50 [9]: 3.37 µM (active)

C[C@H]1CN([C@@H](C)CO)C(=O)Cc2cc(NC(=O)Cc3cn(C)c4ccccc34)ccc2O[C@H]1CN(C)Cc1ccc(Oc2ccccc2)cc1
AC50 [9]: 5.58 µM (active)

CN(C)C(=O)C[C@H]1C[C@@H]2c3cc(NS(=O)(=O)c4ccc(F)cc4)ccc3O[C@@H]2[C@@H](CO)O1
AC50 [7]: 54.1 µM (active)

CCCCCC(=O)N/N=C/c1cc(Br)c(O)c(OC)c1
AC50 [1]: 0.098 µM (active)
